Experimental data from patent US9580444B2, “Polycyclic pyrazolinone derivative and herbicide comprising same as effective component thereof” (priority 2013, dated 2017).

How the values were obtained:
Experiment in all cases: Test Example-1: herbicidal effect by a treatment before weeds are generated under submerged conditions
Type in all cases: in vivo
Details in all cases: 500 g a.i/ha, pre-emergence treatment, about 15 days after treatment, score 0-5
[1] = test system: Cyperus difformis (smallflower umbrella plant)
Description: (§1) Using the formulation prepared according to the methods described above, the herbicidal effect of the bicyclic pyrazolinone derivative of the invention according to the methods shown in Test Examples below was examined. The herbicidal effect with respect to the test weeds or the phytotoxicity with respect to the test crops was examined according to the following criteria, and evaluated in six stage scores of 0 to 5.
(§2) A plastic cup of 30 cm^2 was filled with paddy soil, soil puddling was performed, seeds of Echinochloa oryzicola (barnyard grass), Cyperus difformis (smallflower umbrella plant), Monochoria vaginalis (monochoria), Scirpus juncoides (bulrush), and Eleocharis acicularis (needle spikerush), and Lindernia procumbens (common false pimpernel), Rotala indica (indian toothcup), Elatine triandra (waterwort) as other annual broad leaf weeds were seeded therein, and kept in a submerged state. A wettable powder or an emulsifiable concentrate of the compound of the present invention prepared according to Formulation Example was diluted on the weed seeding day, and a submersing treatment was performed so as to be a predetermined dosage. The herbicidal effect with respect to the test weeds about 15 days after the treatment was evaluated according to the evaluation criteria in six stages of 0 to 5 described above.

[2] = test system: Echinochloa oryzicola (barnyard grass)
Description: as §1, §2

[3] = test system: Eleocharis acicularis (needle spikerush)
Description: as §1, §2

[4] = test system: Monochoria vaginalis (monochoria)
Description: as §1, §2

[5] = test system: Scirpus juncoides (bulrush)
Description: as §1, §2

[6] = test system: other annual broad leaf weeds (Lindernia procumbens, Rotala indica, Elatine triandra)
Description: as §1, §2

| Compound | Herbicidal effect Cyperus difformis [1] | Herbicidal effect Echinochloa oryzicola [2] | Herbicidal effect Eleocharis acicularis [3] | Herbicidal effect Monochoria vaginalis [4] | Herbicidal effect Scirpus juncoides [5] | Herbicidal effect Broadleaf weed [6] |
| --- | --- | --- | --- | --- | --- | --- |
| CCOC(=CC(=O)OC)COc1cc(-c2c(Cl)n3n(c2=O)CCCC3)c(F)cc1Cl (mixture of isomers) [Compound 2-12] | 5 (Herbicidal effect/phytotoxicity was 90% or greater) | 5 (Herbicidal effect/phytotoxicity was 90% or greater) | 5 (Herbicidal effect/phytotoxicity was 90% or greater) | 5 (Herbicidal effect/phytotoxicity was 90% or greater) | 5 (Herbicidal effect/phytotoxicity was 90% or greater) | 5 (Herbicidal effect/phytotoxicity was 90% or greater) |
| C#CCOc1cc(-c2c(F)n3n(c2=O)CCCCC3)c(Cl)cc1Cl [Example 1-361] | 5 (Herbicidal effect/phytotoxicity was 90% or greater) | 5 (Herbicidal effect/phytotoxicity was 90% or greater) | 5 (Herbicidal effect/phytotoxicity was 90% or greater) | 5 (Herbicidal effect/phytotoxicity was 90% or greater) | 5 (Herbicidal effect/phytotoxicity was 90% or greater) | 5 (Herbicidal effect/phytotoxicity was 90% or greater) |
| COc1ccc(Oc2cc(-c3c(Cl)n4n(c3=O)CCCC4)c(F)cc2Cl)cc1 [Compound 3-7] | 5 (Herbicidal effect/phytotoxicity was 90% or greater) | 5 (Herbicidal effect/phytotoxicity was 90% or greater) | 5 (Herbicidal effect/phytotoxicity was 90% or greater) | 5 (Herbicidal effect/phytotoxicity was 90% or greater) | 5 (Herbicidal effect/phytotoxicity was 90% or greater) | 5 (Herbicidal effect/phytotoxicity was 90% or greater) |
| COCOc1cccc(Oc2cc(-c3c(Cl)n4n(c3=O)CCCC4)c(F)cc2Cl)c1 [Compound 3-14] | 5 (Herbicidal effect/phytotoxicity was 90% or greater) | 5 (Herbicidal effect/phytotoxicity was 90% or greater) | 5 (Herbicidal effect/phytotoxicity was 90% or greater) | 5 (Herbicidal effect/phytotoxicity was 90% or greater) | 5 (Herbicidal effect/phytotoxicity was 90% or greater) | 5 (Herbicidal effect/phytotoxicity was 90% or greater) |
| CC(C)CCOc1cc(-c2c(Cl)n3n(c2=O)CCCC3)c(F)cc1Cl [Example 1-159] | 5 (Herbicidal effect/phytotoxicity was 90% or greater) | 5 (Herbicidal effect/phytotoxicity was 90% or greater) | 5 (Herbicidal effect/phytotoxicity was 90% or greater) | 5 (Herbicidal effect/phytotoxicity was 90% or greater) | 5 (Herbicidal effect/phytotoxicity was 90% or greater) | 5 (Herbicidal effect/phytotoxicity was 90% or greater) |
| COCOc1ccc(Oc2cc(-c3c(Cl)n4n(c3=O)CCCC4)c(F)cc2Cl)cc1 [Compound 3-15] | 5 (Herbicidal effect/phytotoxicity was 90% or greater) | 5 (Herbicidal effect/phytotoxicity was 90% or greater) | 5 (Herbicidal effect/phytotoxicity was 90% or greater) | 5 (Herbicidal effect/phytotoxicity was 90% or greater) | 5 (Herbicidal effect/phytotoxicity was 90% or greater) | 5 (Herbicidal effect/phytotoxicity was 90% or greater) |
| COc1cc(Cl)ccc1Oc1cc(-c2c(Cl)n3n(c2=O)CCCC3)c(F)cc1Cl [Compound 3-37] | 5 (Herbicidal effect/phytotoxicity was 90% or greater) | 5 (Herbicidal effect/phytotoxicity was 90% or greater) | 5 (Herbicidal effect/phytotoxicity was 90% or greater) | 5 (Herbicidal effect/phytotoxicity was 90% or greater) | 5 (Herbicidal effect/phytotoxicity was 90% or greater) | 5 (Herbicidal effect/phytotoxicity was 90% or greater) |
| COC(=O)COc1ccccc1Oc1cc(-c2c(Cl)n3n(c2=O)CCCC3)c(F)cc1Cl [Compound 3-16] | 5 (Herbicidal effect/phytotoxicity was 90% or greater) | 5 (Herbicidal effect/phytotoxicity was 90% or greater) | 5 (Herbicidal effect/phytotoxicity was 90% or greater) | 5 (Herbicidal effect/phytotoxicity was 90% or greater) | 5 (Herbicidal effect/phytotoxicity was 90% or greater) | 5 (Herbicidal effect/phytotoxicity was 90% or greater) |
| C=C(C)COc1cc(-c2c(Cl)n3n(c2=O)CCCC3)c(F)cc1F [Example 1-109] | 5 (Herbicidal effect/phytotoxicity was 90% or greater) | 5 (Herbicidal effect/phytotoxicity was 90% or greater) | 5 (Herbicidal effect/phytotoxicity was 90% or greater) | 5 (Herbicidal effect/phytotoxicity was 90% or greater) | 5 (Herbicidal effect/phytotoxicity was 90% or greater) | 5 (Herbicidal effect/phytotoxicity was 90% or greater) |
| C=C(C)COC(=O)C=C(COc1cc(-c2c(Cl)n3n(c2=O)CCCC3)c(F)cc1Cl)OCCC [Compound 2-33] | 5 (Herbicidal effect/phytotoxicity was 90% or greater) | 5 (Herbicidal effect/phytotoxicity was 90% or greater) | 5 (Herbicidal effect/phytotoxicity was 90% or greater) | 5 (Herbicidal effect/phytotoxicity was 90% or greater) | 5 (Herbicidal effect/phytotoxicity was 90% or greater) | 5 (Herbicidal effect/phytotoxicity was 90% or greater) |
| O=c1c(-c2cc(OC3C=CCCC3)c(F)cc2F)c(Cl)n2n1CCCC2 (stereo not drawn) [Example 1-112] | 5 (Herbicidal effect/phytotoxicity was 90% or greater) | 5 (Herbicidal effect/phytotoxicity was 90% or greater) | 5 (Herbicidal effect/phytotoxicity was 90% or greater) | 5 (Herbicidal effect/phytotoxicity was 90% or greater) | 5 (Herbicidal effect/phytotoxicity was 90% or greater) | 5 (Herbicidal effect/phytotoxicity was 90% or greater) |
| C=C(COc1ccccc1Oc1cc(-c2c(Cl)n3n(c2=O)CCCC3)c(F)cc1Cl)c1cccc(Cl)c1 [Compound 3-26] | 5 (Herbicidal effect/phytotoxicity was 90% or greater) | 5 (Herbicidal effect/phytotoxicity was 90% or greater) | 5 (Herbicidal effect/phytotoxicity was 90% or greater) | 5 (Herbicidal effect/phytotoxicity was 90% or greater) | 5 (Herbicidal effect/phytotoxicity was 90% or greater) | 5 (Herbicidal effect/phytotoxicity was 90% or greater) |
| O=c1c(-c2cc(Oc3ccccc3O)c(Cl)cc2F)c(Cl)n2n1CCCC2 [Compound 3-1] | 5 (Herbicidal effect/phytotoxicity was 90% or greater) | 5 (Herbicidal effect/phytotoxicity was 90% or greater) | 5 (Herbicidal effect/phytotoxicity was 90% or greater) | 5 (Herbicidal effect/phytotoxicity was 90% or greater) | 5 (Herbicidal effect/phytotoxicity was 90% or greater) | 5 (Herbicidal effect/phytotoxicity was 90% or greater) |
| COc1cccc(Oc2cc(-c3c(Cl)n4n(c3=O)CCCC4)c(F)cc2Cl)c1 [Compound 3-5] | 5 (Herbicidal effect/phytotoxicity was 90% or greater) | 5 (Herbicidal effect/phytotoxicity was 90% or greater) | 5 (Herbicidal effect/phytotoxicity was 90% or greater) | 5 (Herbicidal effect/phytotoxicity was 90% or greater) | 5 (Herbicidal effect/phytotoxicity was 90% or greater) | 5 (Herbicidal effect/phytotoxicity was 90% or greater) |
| O=c1c(-c2ccc(Cl)cc2Cl)c(Cl)n2n1CCCC2 [Example 1-280] | 5 (Herbicidal effect/phytotoxicity was 90% or greater) | 5 (Herbicidal effect/phytotoxicity was 90% or greater) | 5 (Herbicidal effect/phytotoxicity was 90% or greater) | 5 (Herbicidal effect/phytotoxicity was 90% or greater) | 5 (Herbicidal effect/phytotoxicity was 90% or greater) | 5 (Herbicidal effect/phytotoxicity was 90% or greater) |
